The record followed here is US20250327097A1, “ORGANISMS PRODUCING LESS CROTONIC ACID” (Global Bioenergies, priority 2021, published 2025).

For data set [1], the system named is TaFdcV. Kind of data set: Acid binding and cycloadduct formation with TaFdcV (UV-Vis, ESI-MS, co-crystallization).
Description: TaFdcV (500 μL, 0.45 mM protein, 25 mM HEPES, 150 mM KCl, pH 6.8) was incubated with crotonic or 2-butynoic acid. The formation of the prFMN-crotonic acid cycloadduct was followed by UV-Vis spectroscopy and additional acid were added until full conversion (complete loss of the 380 nm peak). The protein was desalted to 25 mM HEPES, 150 mM KCl, pH 6.8 and plated for crystal trials.
Data set [2] concerns TaFdc. The experiment in a line: Acid binding and cycloadduct formation with TaFdc wild-type (UV-Vis).
The target of data set [3] is AnFdc (Aspergillus niger, UniProt A2QHE5). The experiment in a line: Quantitative GC assay of pentene production from hexenoic acid. The data set is classed as biochemical.
For data set [4], the system named is ferulic acid decarboxylase (FDC). The experiment in a line: Inhibition of ferulic acid decarboxylase. The data set is classed as biochemical. The text has this: In recombinant organisms or microorganisms, 3-methylcrotonic acid, the substrate of FDC, can be produced from acetyl-CoA in a multistep enzymatic process. The final conversion of 3-methylcrotonic acid into isobutene can be carried out in the same recombinant organism or microorganism that has been used for the production of 3-methylcrotonic acid. In such a one-step process, it is required that the recombinant organism or microorganism encodes the enzyme FDC. Alternatively, isobutene may be produced from 3-methylcrotonic acid in a two-step process. For that, a fermentation culture medium of a recombinant organism or microorganism comprising the produced 3-methylcrotonic acid may be contacted with a recombinant organism or microorganism encoding the enzyme FDC in an in vivo or in vitro biotransformation reaction. In an alternative two-step process, a first recombinant organism or microorganism may be used to convert acetyl-CoA into 3-hydroxyisovaleric acid and the produced 3-hydroxyisovaleric acid may then be converted into isobutene by a second recombinant organism or microorganism (via 3-methylcrotonic acid and FDC).

Data set [5] concerns the target AnFdcII (Aspergillus niger, UniProt A2QHE5, P438W/R435P/T395M). The data set is classed as binding.
Data set [6] has as its target AnFdc wild-type (Aspergillus niger, UniProt A2QHE5). Kind of data set: Crotonic acid binding by UV-Vis spectra, AnFdc wild-type. The following applies: 2-h incubation.
For data set [7], the system named is 3-methylcrotonic acid. Kind of data set: Initial in vivo screening of Fdc homologues co-expressed with UbiX for 3-methylcrotonic acid decarboxylation (isobutene by GC). The following applies: isobutene in headspace from 10 mM 3-methylcrotonic acid; Fdc (MCS1, N-terminal 6His-tag) and UbiX (MCS2) in pETDuet. The data set is classed as cell-based, E. coli.
The test system of data set [8] is crotonyl-CoA. The experiment in a line: Coupled assay positive control: purified FabV with crotonyl-CoA. The data set is classed as biochemical, Treponema denticola. To be noted: 1 mM crotonyl-CoA, 100 μg/ml FabV, 18 h at 34° C. The protocol:
The acid-CoA ligases were tested as purified enzymes with a coupled assay using purified FabV from Treponema denticola (EC 1.3.1.44) (Uniprot Accession No: Q73Q47) (to convert crotonyl-CoA to butyryl-CoA). The reaction was carried out as follows: 50 μg/ml acid-CoA ligase and 100 μg/ml FabV with a buffered solution containing 100 mM Tris-HCl pH7.5, 20 mM NaCl, 100 mM KCl, 2 mM MgCl2, 1 mM crotonic acid (TCI chemicals), 1 mM ATP (Sigma-Aldrich), 1 mM coenzyme A (Sigma-Aldrich) and 1 mM NADH (Sigma-Aldrich) were incubated 18 h at 34° C. in a water bath, and the reaction was stopped with acetonitrile. […] The produced butyryl-CoA (Sigma-Aldrich) and the consumed crotonic acid (TCI chemicals) were quantified by HPLC with a calibration curve. The samples were injected on a Zorbax SB-Aq column (Agilent) at 30° C. and eluted with 8.4 mM H2SO4 and a gradient of acetonitrile.
The CoA-transferase was tested as purified enzyme with a coupled assay using purified FabV from Treponema denticola (EC 1.3.1.44) (Uniprot Accession No: Q73Q47) (to convert crotonyl-CoA to butyryl-CoA). […] The produced butyryl-CoA (Sigma-Aldrich) and the consumed crotonic acid (TCI chemicals) were quantified by HPLC with a calibration curve. […]

`CC#CC(=O)O` [2-butynoic acid]: in data set [1], the “binding to TaFdcV, UV-Vis spectrum after desalting” value (“binding to TaFdcV, UV-Vis spectrum” for short) is on record as “covalent inhibitory adduct is formed”; the “state of the adduct by ESI-MS and co-crystallization” value was “stalls as Int1”.
Turning to `CCCC=CC(=O)O` [2-hexenoic acid], the “binding to TaFdc, UV-Vis spectrum after desalting” value in data set [2] is on record as “irreversibly binds”. Further, the “binding to TaFdcV, UV-Vis spectrum” value in data set [1] is reported as “irreversibly binds”. In data set [3], the “pentene production from hexenoic acid” value is “limited to a single turnover”. Also, in data set [4], the “inhibition of FDC” value is reported as “irreversible inhibitors”.
For the molecule `CCC=CC(=O)O` [2-pentenoic acid], the “binding to TaFdc, UV-Vis spectrum after desalting” value in data set [2] is listed as “irreversibly binds”. Also, the “binding to TaFdcV, UV-Vis spectrum” value in data set [1] is “irreversibly binds”. In addition, the “inhibition of FDC” value in data set [4] is “irreversible inhibitors”.
In the case of `C/C=C/C(=O)O` [crotonic acid], the “binding to TaFdcV, UV-Vis spectrum” value in data set [1] is “covalent inhibitory adduct is formed”. Further, the “binding by UV-Vis spectra” value in data set [5] is “readily bind the inhibitor”; in data set [6] it was “cannot be detected”. The “inhibition of FDC” value in data set [4] is “irreversible inhibitors”.

B1: UbiX alone: UbiX (E. coli K-12) expressed without Fdc, control (protein, UniProt P0AG03 1-189, looked up)
Flavin prenyltransferase UbiX: MKRLIVGISGASGAIYGVRLLQVLRDVTDIETHLVMSQAARQTLSLETDFSLREVQALADVTHDARDIAASISSGSFQTLGMVILPCSIKTLSGIVHSYTDGLLTRAADVVLKERRPLVLCVRETPLHLGHLRLMTQAAEIGAVIMPPVPAFYHRPQSLDDVINQTVNRVLDQFAITLPEDLFARWQGA
B1: the “ppm Average” value in data set [7] is given as 3.3 ppm.

B2: ScFdc-UbiX: Fdc homologue, Uniprot Q03034, co-expressed with UbiX in pETDuet (protein, UniProt Q03034 1-503, looked up)
Ferulic acid decarboxylase 1: MRKLNPALEFRDFIQVLKDEDDLIEITEEIDPNLEVGAIMRKAYESHLPAPLFKNLKGASKDLFSILGCPAGLRSKEKGDHGRIAHHLGLDPKTTIKEIIDYLLECKEKEPLPPITVPVSSAPCKTHILSEEKIHLQSLPTPYLHVSDGGKYLQTYGMWILQTPDKKWTNWSIARGMVVDDKHITGLVIKPQHIRQIADSWAAIGKANEIPFALCFGVPPAAILVSSMPIPEGVSESDYVGAILGESVPVVKCETNDLMVPATSEMVFEGTLSLTDTHLEGPFGEMHGYVFKSQGHPCPLYTVKAMSYRDNAILPVSNPGLCTDETHTLIGSLVATEAKELAIESGLPILDAFMPYEAQALWLILKVDLKGLQALKTTPEEFCKKVGDIYFRTKVGFIVHEIILVADDIDIFNFKEVIWAYVTRHTPVADQMAFDDVTSFPLAPFVSQSSRSKTMKGGKCVTNCIFRQQYERSFDYITCNFEKGYPKGLVDKVNENWKRYGYK
modifications: co-expressed with UbiX
notes: Fdc homologue, Uniprot Q03034, co-expressed with UbiX in pETDuet
In the case of B2, in data set [7], the “ppm Average” value is 17.6 ppm.

B3: FabV: purified FabV from Treponema denticola (EC 1.3.1.44), Uniprot Q73Q47 (protein, listed as Treponema denticola)
chain: MIVKPMVRNNICLNAHPQGCKKGVEDQIEYTKKRITAEVKAGAKAPKNVLVLGCSNGYGLASRITAAFGYGAATIGVSFEKAGSETKYGTPGWYNNLAFDEAAKREGLYSVTIDGDAFSDEIKAQVIEEAKKKGIKFDLIVYSLASPVRTDPDTGIMHKSVLKPFGKTFTGKTVDPFTGELKEISAEPANDEEAAATVKVMGGEDWERWIKQLSKEGLLEEGCITLAYSYIGPEATQALYRKGTIGKAKEHLEATAHRLNKENPSIRAFVSVNKGLVTRASAVIPVIPLYLASLFKVMKEKGNHEGCIEQITRLYAERLYRKDGTIPVDEENRIRIDDWELEEDVQKAVSALMEKVTGENAESLTDLAGYRHDFLASNGFDVEGINYEAEVERFDRI
modifications: FabV
notes: purified FabV from Treponema denticola (EC 1.3.1.44), Uniprot Q73Q47
On to B3, for which the “conversion of crotonyl-CoA to butyryl-CoA” value in data set [8] was “could convert all of it to butyryl-CoA”.

B4: CdFdc-UbiX: Fdc homologue, Uniprot B9WJ66, co-expressed with UbiX in pETDuet (protein, UniProt B9WJ66 1-513, looked up)
Ferulic acid decarboxylase 1: MSLNPALKFRDFIQVLKNEGDLIEIDTEVDPNLEVGAITRKAYENKLAAPLFNNLKQDPENIDPKNLFRILGCPGGLRGFGNDHARIALHLGLDSQTPMKEIIDFLVANRNPKKYIPPVLVPNDQSPHKKHHLTKEQIDLTKLPVPLLHHGDGGKFIQTYGMWVLQTPDKSWTNWSIARGMVHDSKSITGLVINPQHVKQVSDAWVAAGKGDKIPFALCFGVPPAAILVSSMPIPDGATEAEYIGGLCNQAVPVVKCETNDLEVPADCEMVFEGYLDRDTLVREGPFGEMHGYCFPKDHHTQPLYRVNHISYRDQAIMPISNPGLCTDETHTLIGGLVSAETKYLISQHPVLSKIVEDVFTPYEAQALWLAVKINTHELVKLKTNAKELSNLVGDFLFRSKECYKVCSILHEIILVGDDIDIFDFKQLIWAYTTRHTPVQDQLYFDDVKPFALAPFASQGPLIKTRQGGKCVTTCIFPKQFTDPDFEFVTCNFNGYPEEVKNKISQNWDKYYK
modifications: co-expressed with UbiX
notes: Fdc homologue, Uniprot B9WJ66, co-expressed with UbiX in pETDuet
With B4, the “ppm Average” value in data set [7] turned out to be 4.8 ppm.
